Results: PubChem BioAssay (NCI)
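Briefly, cells in 96-well plates were exposed to five compound concentrations for 48 h, and endpoints were estimated by linear interpolation. GI50: concentration for 50% inhibition of growth. Definition used: TGI = concentration required for complete inhibition of growth.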

Tests used:
Test in all cases: NCI-60 cell line screen, 48 h
[1] = system: SNB-19 CNS
[2] = system: SK-MEL-28 melanoma
[3] = system: SN12C renal
[4] = system: HS 578T breast
[5] = system: SR leukemia
[6] = system: MDA-MB-231 breast
[7] = system: NCI-H522 lung
[8] = system: M14 melanoma
[9] = system: OVCAR-5 ovarian
[10] = system: A498 renal
[11] = system: SNB-75 CNS
[12] = system: IGROV1 ovarian
[13] = system: HOP-62 NSCLC
[14] = system: UO-31 renal
[15] = system: NCI/ADR-RES ovarian
[16] = system: COLO 205 colon
[17] = system: CCRF-CEM leukemia
[18] = system: U251 CNS
[19] = system: MCF7 breast
[20] = system: SK-OV-3 ovarian
[21] = system: SF-539 CNS
[22] = system: BT-549 breast
[23] = system: T-47D breast
[24] = system: SW-620 colon
[25] = system: NCI-H460 lung
[26] = system: UACC-257 melanoma
[27] = system: SF-295 CNS
[28] = system: OVCAR-4 ovarian
[29] = system: ACHN renal
[30] = system: MOLT-4 leukemia
[31] = system: A549 NSCLC
[32] = system: NCI-H23 lung
[33] = system: HCC-2998 colon
[34] = system: 786-0 renal
[35] = system: HL-60(TB) leukemia
[36] = system: TK-10 renal
[37] = system: OVCAR-3 ovarian
[38] = system: MDA-MB-435
[39] = system: UACC-62 melanoma
[40] = system: HCT-116 colon
[41] = system: OVCAR-8 ovarian
[42] = system: MALME-3M melanoma
[43] = system: KM12 colon
[44] = system: NCI-H226 lung
[45] = system: SK-MEL-5 melanoma
[46] = system: DU-145 prostate
[47] = system: SF-268 CNS
[48] = system: CAKI-1 renal
[49] = system: RXF 393 renal
[50] = system: RPMI-8226 leukemia
[51] = system: PC-3 prostate
[52] = system: K-562 leukemia
[53] = system: HT29 colon
[54] = system: HCT-15 colon

**Q.** Which GI50 [1] does the source give for COc1ccc(C(=O)c2sc3nc4c(cc3c2N)CCCC4)cc1OC here?
**A.** 7.06 µM

**Q.** What about the TGI [1] of the same compound?
**A.** > 100 µM

**Q.** And the GI50 [2]?
**A.** 2.95 µM

**Q.** And the TGI [2]?
**A.** 14.8 µM

**Q.** What about the GI50 [3] of the same compound?
**A.** 4.18 µM

**Q.** What about the TGI [3] of the same compound?
**A.** 48.5 µM

**Q.** What about the GI50 [4] of the same compound?
**A.** 4.93 µM

**Q.** And the TGI [4]?
**A.** 56.6 µM

**Q.** And the GI50 [5]?
**A.** 1.59 µM

**Q.** And the TGI [5]?
**A.** 17.8 µM

**Q.** What about the GI50 [6] of the same compound?
**A.** 3.74 µM

**Q.** And the TGI [6]?
**A.** 8.72 µM

**Q.** And the GI50 [7]?
**A.** 1.52 µM

**Q.** What about the TGI [7] of the same compound?
**A.** 5.53 µM

**Q.** What about the GI50 [8] of the same compound?
**A.** 2.83 µM

**Q.** And the TGI [8]?
**A.** 11.5 µM

**Q.** What about the GI50 [9] of the same compound?
**A.** 14.1 µM

**Q.** What about the TGI [9] of the same compound?
**A.** 48.5 µM

**Q.** What about the GI50 [10] of the same compound?
**A.** 1.83 µM

**Q.** And the TGI [10]?
**A.** 9.43 µM

**Q.** What about the GI50 [11] of the same compound?
**A.** 2.79 µM

**Q.** What about the TGI [11] of the same compound?
**A.** 9.93 µM

**Q.** What about the GI50 [12] of the same compound?
**A.** 4.75 µM

**Q.** What about the TGI [12] of the same compound?
**A.** 29.3 µM

**Q.** What about the GI50 [13] of the same compound?
**A.** 3.87 µM

**Q.** What about the TGI [13] of the same compound?
**A.** 15.3 µM

**Q.** What about the GI50 [14] of the same compound?
**A.** 3.04 µM

**Q.** What about the TGI [14] of the same compound?
**A.** 13.8 µM

**Q.** And the GI50 [15]?
**A.** 2.04 µM

**Q.** And the TGI [15]?
**A.** 6.67 µM

**Q.** What about the GI50 [16] of the same compound?
**A.** 3.33 µM

**Q.** And the TGI [16]?
**A.** 10.1 µM

**Q.** What about the GI50 [17] of the same compound?
**A.** 2.95 µM

**Q.** And the TGI [17]?
**A.** 12.3 µM

**Q.** What about the GI50 [18] of the same compound?
**A.** 3.03 µM

**Q.** What about the TGI [18] of the same compound?
**A.** 16.2 µM

**Q.** What about the GI50 [19] of the same compound?
**A.** 2.74 µM

**Q.** And the TGI [19]?
**A.** 10.6 µM

**Q.** And the GI50 [20]?
**A.** 10 µM

**Q.** And the TGI [20]?
**A.** 47.6 µM

**Q.** And the GI50 [21]?
**A.** 3.83 µM

**Q.** What about the TGI [21] of the same compound?
**A.** 25.7 µM

**Q.** What about the GI50 [22] of the same compound?
**A.** 2.68 µM

**Q.** And the TGI [22]?
**A.** 8.25 µM

**Q.** What about the GI50 [23] of the same compound?
**A.** 2.65 µM

**Q.** And the TGI [23]?
**A.** 8.95 µM

**Q.** And the GI50 [24]?
**A.** 4.15 µM

**Q.** And the TGI [24]?
**A.** 26.9 µM

**Q.** What about the GI50 [25] of the same compound?
**A.** 3.22 µM

**Q.** What about the TGI [25] of the same compound?
**A.** 13.2 µM

**Q.** And the GI50 [26]?
**A.** 3.81 µM

**Q.** And the TGI [26]?
**A.** 14.9 µM

**Q.** What about the GI50 [27] of the same compound?
**A.** 3.06 µM

**Q.** And the TGI [27]?
**A.** 13.5 µM

**Q.** What about the GI50 [28] of the same compound?
**A.** 3.48 µM

**Q.** What about the TGI [28] of the same compound?
**A.** 18.6 µM

**Q.** What about the GI50 [29] of the same compound?
**A.** 6.58 µM

**Q.** And the TGI [29]?
**A.** 31.3 µM

**Q.** And the GI50 [30]?
**A.** 2.62 µM

**Q.** What about the TGI [30] of the same compound?
**A.** 6.49 µM

**Q.** What about the GI50 [31] of the same compound?
**A.** 3.28 µM

**Q.** What about the TGI [31] of the same compound?
**A.** 12.9 µM

**Q.** What about the GI50 [32] of the same compound?
**A.** 2.64 µM

**Q.** What about the TGI [32] of the same compound?
**A.** 9.94 µM

**Q.** What about the GI50 [33] of the same compound?
**A.** 7.01 µM

**Q.** What about the TGI [33] of the same compound?
**A.** 30.4 µM

**Q.** And the GI50 [34]?
**A.** 4.01 µM

**Q.** What about the TGI [34] of the same compound?
**A.** 17 µM

**Q.** What about the GI50 [35] of the same compound?
**A.** 2.8 µM

**Q.** What about the TGI [35] of the same compound?
**A.** 7.62 µM

**Q.** And the GI50 [36]?
**A.** 4.77 µM

**Q.** What about the TGI [36] of the same compound?
**A.** 26.5 µM

**Q.** And the GI50 [37]?
**A.** 3.91 µM

**Q.** What about the TGI [37] of the same compound?
**A.** 24.4 µM

**Q.** What about the GI50 [38] of the same compound?
**A.** 0.723 µM

**Q.** What about the TGI [38] of the same compound?
**A.** 5.76 µM

**Q.** And the GI50 [39]?
**A.** 1.99 µM

**Q.** What about the TGI [39] of the same compound?
**A.** 6.8 µM

**Q.** What about the GI50 [40] of the same compound?
**A.** 3.78 µM

**Q.** What about the TGI [40] of the same compound?
**A.** 50.2 µM

**Q.** And the GI50 [41]?
**A.** 2.83 µM

**Q.** And the TGI [41]?
**A.** 9.88 µM

**Q.** What about the GI50 [42] of the same compound?
**A.** 2.71 µM

**Q.** And the TGI [42]?
**A.** 14.8 µM

**Q.** What about the GI50 [43] of the same compound?
**A.** 2.43 µM

**Q.** What about the TGI [43] of the same compound?
**A.** 15.5 µM

**Q.** What about the GI50 [44] of the same compound?
**A.** 3.5 µM

**Q.** And the TGI [44]?
**A.** 23 µM

**Q.** What about the GI50 [45] of the same compound?
**A.** 1.87 µM

**Q.** And the TGI [45]?
**A.** 4.92 µM

**Q.** What about the GI50 [46] of the same compound?
**A.** 6.74 µM

**Q.** What about the TGI [46] of the same compound?
**A.** 36.6 µM

**Q.** And the GI50 [47]?
**A.** 5.56 µM

**Q.** And the TGI [47]?
**A.** 34.6 µM

**Q.** And the GI50 [48]?
**A.** 2.83 µM

**Q.** And the TGI [48]?
**A.** 13 µM

**Q.** What about the GI50 [49] of the same compound?
**A.** 3.41 µM

**Q.** And the TGI [49]?
**A.** 24.2 µM

**Q.** And the GI50 [50]?
**A.** 2.31 µM

**Q.** And the TGI [50]?
**A.** 8.01 µM

**Q.** What about the GI50 [51] of the same compound?
**A.** 2.97 µM

**Q.** And the TGI [51]?
**A.** 15 µM

**Q.** What about the GI50 [52] of the same compound?
**A.** 0.946 µM

**Q.** And the TGI [52]?
**A.** 40.6 µM

**Q.** What about the GI50 [53] of the same compound?
**A.** 3.08 µM

**Q.** What about the TGI [53] of the same compound?
**A.** 15.9 µM

**Q.** What about the GI50 [54] of the same compound?
**A.** 2.48 µM

**Q.** And the TGI [54]?
**A.** 21.2 µM
